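Assay format: 96-well plates, 48-hour exposure. The concentration for full growth arrest is given as TGI.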
How the values were obtained:
Assay in all cases: inhibition of tumour cell growth, NCI panel, 48 h
[1] = tested on: 786-0 renal
[2] = tested on: UACC-62 melanoma
[3] = tested on: SW-620 colon
[4] = tested on: HOP-62 NSCLC
[5] = tested on: MDA-MB-435
[6] = tested on: MDA-MB-231 breast
[7] = tested on: COLO 205 colon
[8] = tested on: U251 CNS
[9] = tested on: T-47D breast
[10] = tested on: ACHN renal

SMILES	TGI [1]	TGI [2]	TGI [3]	TGI [4]	TGI [5]	TGI [6]	TGI [7]	TGI [8]	TGI [9]	TGI [10]
Cc1cc(S(=O)(=O)Nc2nnc3cc(C(F)(F)F)cc(C)n23)c(S)cc1Cl	> 100 µM	> 100 µM	> 100 µM	> 100 µM	> 100 µM	> 100 µM	> 100 µM	> 81.5 µM	> 100 µM	> 100 µM
O=C(NCCNCCO)N/N=C/c1ccc(Cl)cc1	> 100 µM	> 100 µM	> 100 µM	> 100 µM	> 100 µM	> 100 µM	> 100 µM	> 100 µM	> 100 µM	> 100 µM
CSc1ncc2c(n1)-c1ccccc1OC2N1CCCC1 (centres undefined)	> 100 µM	> 100 µM	> 100 µM		> 100 µM	> 100 µM	> 100 µM	> 100 µM	> 100 µM	> 100 µM
O=C1[C@@H]2Cc3c([nH]c4ccccc34)C(C3CCCCC3)N2C(=O)[C@@H]2CCCN12 (some centres undefined)	75.9 µM	49 µM	> 100 µM	> 100 µM	> 100 µM	50.2 µM	42.9 µM	> 100 µM	> 100 µM	> 100 µM
CSc1nncc(-c2cc3c(c(SC)n2)CCC3)n1	> 100 µM	> 100 µM	> 100 µM	> 100 µM	> 100 µM	> 100 µM	> 100 µM	> 100 µM		> 100 µM
O=C(O)c1ccccc1/C=N\NC1=NCCCCN1	> 100 µM	> 100 µM	> 100 µM	> 100 µM	> 100 µM	> 100 µM	> 100 µM	> 100 µM	> 100 µM	> 100 µM
COc1ccc(OC)c2cc(Cc3ccc(N(C)C)cc3)c(=O)c(Cc3ccc(N(C)C)cc3)cc12	> 100 µM	> 100 µM	> 100 µM	> 100 µM	> 100 µM	> 100 µM	> 100 µM	> 100 µM	> 100 µM	> 100 µM
COC(=O)[C@@H]1N2C(=S)N(c3ccccc3)C(=O)[C@H]2SC1(C)C	> 100 µM	> 100 µM	> 100 µM	> 100 µM	> 100 µM	> 100 µM	> 100 µM	> 100 µM	> 100 µM	> 100 µM
Cc1ccc(S(=O)(=O)N2CCN(CCN(C)CCN3CCN(S(=O)(=O)c4ccc(C)cc4)CC3)CC2)cc1	39.3 µM	32.8 µM	31.7 µM	33 µM	32 µM	49 µM	38.9 µM	31.6 µM	48 µM	32.7 µM
C=C1C[C@]23C[C@@]1(O)CC[C@H]2[C@@]12C=C[C@H](O)[C@@](C)(C(=O)O1)[C@H]2[C@@H]3C(=O)O	> 100 µM	> 100 µM	> 100 µM	> 100 µM			> 100 µM	> 100 µM		
O=C(N=Nc1ccccc1Br)NNc1ccccc1Br	> 100 µM	> 100 µM	> 100 µM	> 100 µM	> 100 µM	> 100 µM		> 100 µM	> 100 µM	> 100 µM
O=C(NCCO)c1ccc(Cl)cc1	> 100 µM	> 100 µM	> 100 µM	> 100 µM	> 100 µM	> 100 µM		> 100 µM	> 100 µM	> 100 µM
O=C1NC(N/N=C\c2ccccc2)=N/C1=C/c1ccc(Cl)cc1	> 100 µM		> 100 µM	42 µM	> 100 µM	> 100 µM	> 100 µM	76.9 µM	> 100 µM	30 µM
COC(=O)c1cncc2c1CC1C3(C(=O)OC)C=NC(C4C(CO)=CCC43)C21C (centres undefined)	> 100 µM		> 100 µM	> 100 µM	> 100 µM	> 100 µM	> 100 µM	> 100 µM	> 100 µM	> 100 µM
NC(=O)CC(Nc1ncc2c(n1)-c1ccccc1OC2)C(=O)O (centres undefined)	> 100 µM	> 100 µM	> 100 µM	> 100 µM	> 100 µM	> 100 µM	> 100 µM	> 100 µM		> 100 µM
CCOC(=O)C(Cc1ccccc1)(Cc1ccc(O)cn1)NC(=O)c1ccccc1 (centres undefined)	82.6 µM	46 µM	> 100 µM	> 100 µM	30.1 µM	99.6 µM	68.4 µM	57.7 µM		> 100 µM
C/C=C/[C@H]1O[C@@](OC)([C@@H](C)[C@H](O)[C@H](C)[C@H]2OC(=O)/C(OC)=C/C(C)=C/[C@@H](C)[C@@H](O)[C@@H](C)[C@@H](O)[C@H](C)C/C(C)=C/C=C/[C@@H]2OC)CC(OC2CC(O)C(OC(N)=O)C(C)O2)[C@@H]1C (some centres undefined)	10.4 µM		4.8 µM	1.4 µM	< 0.01 µM	12.7 µM	1.8 µM	9.71 µM	15.1 µM	8.27 µM
CCOP(=O)(OCC)C(Nc1ccc(F)cc1)c1cccc([N+](=O)[O-])c1 (centres undefined)		> 100 µM	> 100 µM	> 100 µM	> 100 µM	> 100 µM	> 100 µM	> 100 µM		> 100 µM
NC(CCCCNC(=O)OCc1ccccc1)C(=O)NC(CCCCNC(=O)OCc1ccccc1)C(=O)ON1C(=O)CCC1=O (centres undefined)	> 100 µM	> 100 µM	> 100 µM	> 100 µM		> 100 µM	> 100 µM	> 100 µM	> 100 µM	> 100 µM
CN1C2CC(=O)CC1[C@@H]1OC(c3ccccc3)O[C@H]21 (some centres undefined)	> 100 µM	> 100 µM	> 100 µM	> 100 µM	> 100 µM	> 100 µM	> 100 µM	> 100 µM	> 100 µM	
COC(=O)C(COC(=O)/C=C/c1ccc(OC(C)=O)c(OC(C)=O)c1)OC(=O)/C=C/c1ccc(OC(C)=O)c(OC(C)=O)c1 (centres undefined)	24 µM	30.9 µM	23.5 µM	58.2 µM	23.9 µM	35.6 µM	30 µM	20.4 µM		27.8 µM
CCOC(=O)C(C(=O)Cc1ccccc1)c1ccccc1 (centres undefined)	> 100 µM	> 100 µM	> 100 µM	> 100 µM			> 100 µM	> 100 µM		> 100 µM

Source: PubChem BioAssay (NCI)
